Laboratory results as given in patent US5225425A, “Bis-aryl amide antagonists of platelet activating factor” (American Cyanamid Company, priority 1992, dated 1993).
Read-outs that look alike come from different tables or passages of the source.

Target: T1, PAF receptor (Oryctolagus cuniculus, UniProt G1TEI7)
T1 construct: centrifuged at 800 rpm for 10-15 minutes at room temperature to recover the platelet rich plasma (PRP); from tissue; host or cells: platelets in platelet rich plasma from blood of male New Zealand White rabbits
Assay: Inhibition of PAF induced platelet aggregation in rabbit platelet rich plasma
Format: cell-based, rabbit (New Zealand White)
Conditions: for inhibition at 10 µM: dose .00001 M
Description: Test compounds are evaluated as PAF receptor antagonists in vitro by measuring inhibition of PAF (platelet activating factor) induced platelet aggregation. Platelet aggregation is measured by a modification of the method described in […], et. al., J. Med. Chem., 27 1174, 1984. […] All syringes and pipets are plastic. The blood is gently mixed and immediately centrifuged at 800 rpm for 10-15 minutes at room temperature to recover the platelet rich plasma (PRP). Platelet poor plasma (PPP) is prepared by centrifuging PRP at 2800 rpm for 10 minutes at room temperature. Dilutions (1:3000) of PRP in Isotone diluent are made and platelet counts are determined on a Coulter Thrombocounter which is standardized with platelet reference standards (Interscience Platelet Control, Portland, Oreg.). PRP platelet counts are adjusted to approximately 400,000-500,000 platelets/μl by the addition of PPP. L-PAF (Platelet Activating Factor) is obtained from Calbiochem. […] All solutions are made up in plastic tubes, stored on ice and protected from heat and light. Solutions are prepared fresh or frozen at -20° C. and used within 48 hours. Incubation mixtures consisted of 400 μl PRP, 50 μl of saline diluent or test compound and 50 μl of PAF agonist. More specifically, 400μl of PRP is stabilized in a cuvette for 1-2 minutes at 37° C. in the aggregometer to achieve a stable baseline, then 50 μl of saline or test compound is added and incubated for 5 minutes before addition of the challenge concentration of pAF. A submaximal concentration is determined from the dose response curve for PAF for that experiment. In general, the challenge concentration is 5E-8 or 1E-7M. Aggregation is monitored for 5 minutes. Samples containing test compound or diluent are run simultaneously for comparison. Test compounds are initially evaluated at a screening concentration of 1E-5M. […] The recording equipment consists of a dual channel Chronolog aggregometer connected to a dual channel 10MV full scale deflection Omniscribe chart recorder (Houston Instruments). The chart recorder is calibrated daily with the use of a suspension of Bio-Rad latex beads (S-X 12 400 mesh) which has a density slightly greater than rabbit PRP. […] These limits defined a full scale deflection. The aggregation traces are analyzed by a digitizing method (C. Kohler and B. Zoltan, J. Pharm. Methods, 12, 113, 1984) with x, y coordinate data stored in a computer file. A suitable program computes parameters of interest such as the magnitude of aggregation.

[1] = PAF challenge 5.0000E-08 M, read-out: % INH of PAF induced platelet aggregation
[2] = PAF challenge 1.0000E-08 M, read-out: % INH of PAF induced platelet aggregation
[3] = PAF challenge .0000005 M, read-out: % INH of PAF induced platelet aggregation

T1 sequence (G1TEI7 1-342): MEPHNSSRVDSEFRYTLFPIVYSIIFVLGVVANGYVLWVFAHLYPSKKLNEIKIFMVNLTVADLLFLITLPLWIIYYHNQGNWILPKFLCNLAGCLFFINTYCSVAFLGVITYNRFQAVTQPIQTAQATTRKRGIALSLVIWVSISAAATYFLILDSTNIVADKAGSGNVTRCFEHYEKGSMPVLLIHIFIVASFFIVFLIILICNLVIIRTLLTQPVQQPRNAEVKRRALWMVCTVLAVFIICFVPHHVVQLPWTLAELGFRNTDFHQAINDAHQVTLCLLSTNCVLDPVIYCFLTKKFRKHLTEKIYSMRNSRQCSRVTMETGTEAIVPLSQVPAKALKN

Row | IC50 (PAF challenge 5.0000E-08 M) [µM] | inhibition at 10 µM [1] [%] | SMILES | also measured
1 | 1.5 | 91 | CCCCCCCCCCCCCCOc1ccc(CC(=O)Nc2cccc(C[n+]3ccn4ccccc43)c2)cc1 | –
2 | 12 | 52 | CCCCCCCCCCCCCCOc1ccc(CN(C(C)=O)c2cccc(C[n+]3ccc(C)c(C)c3)c2)cc1 [1-[[3-[acetyl[[4-(tetradecyloxy)phenyl]methyl]amino]phenyl]methyl]-3,4-dimethyl-pyridinium bromide] | –
3 | 2.47 | 80 | CCCCCCCCCCCCCCOc1ccc(CC(=O)Nc2cccc(-n3cc[n+](C)c3C)c2)cc1 [2,3-dimethyl-1-[3-[[[4-(tetradecyloxy)phenyl]acetyl]amino]phenyl]1H-imidazolium iodide] | –
4 | 4.51 | 62 | CCCCCCCCCCCCCCOc1ccc(CC(=O)Nc2ccc(-n3cc[n+](C)c3C)cc2)cc1 [2,3-dimethyl-1-[4-[[[4-(tetradecyloxy)phenyl]acetyl]amino]phenyl]1H-imidazolium iodide] | –
5 | – | 84 | CCCCCCCCCCCCCCOc1ccc(CC(=O)Nc2cccc(C[n+]3cc(C)cc(C)c3)c2)cc1 [3,5-Dimethyl-1-[[3-[[[4-(tetradecyloxy)phenyl]acetyl]amino]phenyl]methyl]pyridinium bromide] | –
6 | 12 | 46 | CCCCCCCCCCCCCCOc1ccc(CC(=O)Nc2cccc(-c3scc[n+]3C)c2)cc1 [3-Methyl-2-[3-[[[4-(tetradecyloxy)phenyl]acetyl]amino]phenyl]thiazolium chloride] | –
7 | – | – | CCCCCCCCCCCCCCCCOc1ccc(OCC(=O)Nc2ccccc2C[n+]2csc(C)c2)cc1 [3-[[2-[[[4-(Hexadecyloxy)phenoxy]acetyl]amino]phenyl]methyl]-5-methyl-thiazolium bromide] | IC50 (PAF challenge 1.0000E-08 M): 11.2 µM; IC50 (PAF challenge .0000005 M): 3.8 µM; inhibition at 10 µM [2]: 60%; inhibition at 10 µM [3]: 83%
8 | – | – | CCCCCCCCCCCCCCOc1ccc(CCN(C(C)=O)c2cccc(C[n+]3csc(C)c3)c2)cc1 [3-[[3-[Acetyl[2-[4-(tetradecyloxy)phenyl]ethyl]amino]phenyl]methyl]-5-methyl-thiazolium bromide] | IC50 (PAF challenge 8.0000E-09 M): 2.91 µM; IC50 (PAF challenge .0000005 M): 4.3 µM; inhibition at 10 µM (PAF challenge 8.0000E-09 M, read-out: % INH of PAF induced platelet aggregation): 85%; inhibition at 10 µM [3]: 69%
9 | 5 | 72 | CCCCCCCCCCCCCCCCOc1ccc(OCC(=O)Nc2cccc(C[n+]3csc(C)c3)c2)cc1 [3-[[3-[[[4-(Hexadecyloxy)phenoxy]acetyl]amino]phenyl]methyl]-5-methyl-thiazolium bromide] | IC50 (PAF challenge 1.0000E-08 M): 4.4 µM; inhibition at 10 µM [2]: 93%
10 | 2.1 | – | CCCCCCCCCCCCCCOc1ccc(CN(C(C)=O)c2ccc(C[n+]3csc(C)c3)cc2)cc1 [3-[[4-[acetyl[[4-(tetradecyloxy)phenyl]methyl]amino]phenyl]methyl]-5-methyl-thiazolium bromide] | inhibition at 0.1 µM (dose .0000001 M, PAF challenge 5.0000E-08 M, read-out: % INH of PAF induced platelet aggregation): 84%
11 | – | 23 | CCCCCCCCCCCCCCOc1cccc(CC(=O)Nc2ccccc2C[n+]2csc(C)c2)c1 [5-Methyl-3-[[2-[[[3-(tetradecyloxy)phenyl]acetyl]amino]phenyl]methyl]thiazolium bromide] | IC50 (PAF challenge 5E-9 M): 34 µM; inhibition at 10 µM (PAF challenge 5E-9 M, read-out: % INH of PAF induced platelet aggregation): 27%
12 | 5.97 | 54 | CCCCCCCCCCCCCCOc1ccc(C(=O)Nc2cccc(C[n+]3csc(C)c3)c2)cc1 [5-Methyl-3-[[3-[[4-(tetradecyloxy)benzoyl]amino]phenyl]methyl]thiazolium bromide] | –
13 | 2.7 | 89 | CCCCCCCCCCCCCCOc1ccc(NC(=O)c2cccc(C[n+]3csc(C)c3)c2)cc1 [5-Methyl-3-[[3-[[[4-(tetradecyloxy)phenyl]amino]carbonyl]phenyl]methyl]thiazolium bromide] | –
14 | 1.5 | 92 | CCCCCCCCCCCCCCOc1ccc(NC(=O)Nc2cccc(C[n+]3csc(C)c3)c2)cc1 [5-Methyl-3-[[3-[[[[4-(tetradecyloxy)phenyl]amino]carbonyl]amino]phenyl]methyl]thiazolium bromide] | IC50 (PAF challenge .0000001 M): 16.9 µM; inhibition at 50 µM (dose .00005 M, PAF challenge .0000001 M, read-out: % INH of PAF induced platelet aggregation): 80%
